Results: patent US20260306460A1, “COMPOSITION FOR REMOVING AND INHIBITING SENESCENT CELLS, AND USES THEREOF” (LIFECEUTIX CO., LTD., priority 2023, published 2026)

Experiments:
naturally aged mice = test: Open field test in naturally aged mice, Example 15; type: in vivo, mouse; conditions: untreated aged = 100%; 5 days; doses as p16 mRNA
Experimental: In the same manner as in Example 7-1 of WO2023-085787 A1, naturally aged mice were administered LX-405 (5% DMSO in PBS solution, 10 mg/kg, intraperitoneal administration), LX-801 (PBS, 100 mg/kg, intraperitoneal administration), LX-1102 (0.5% CMC-Na solution, 100 mg/kg, oral administration), LX-1801 (PBS, 50 mg/kg, intraperitoneal administration), LX-2101 (0.5% CMC-Na solution, 10 mg/kg, intraperitoneal administration), and LX-3403 (mouse anti-PD-1 antibody (BioXcell), 100 μg, intraperitoneal administration) for 5 days under the following conditions. The control group was administered only the solution in the same volume. After drug administration was completed, the method described in each Example below was performed. The mouse was sacrificed in the same manner as Example 7-2 and 7-6 of WO2023-085787 A1. Total RNA was extracted from liver tissue, and qRT-PCR was performed and analyzed using synthesized cDNA. […] The mRNA amounts of p16, MMP3, and IL6 after natural aging were induced were calculated as 100% and compared them with the mRNA amounts of p16, MMP3, and IL6 after treatment with the test compound. Furthermore, an open field test was performed to analyze aging-related frailty in mice using the same method as Example 7-7 of WO2023-085787 A1. […] The amount of activity evaluated after inducing aging was calculated as 100% and compared it with the amount of activity evaluated after treatment with the test compound.

[1] = system: naturally aged C57BL6J mice; test: p16 mRNA in organs of naturally aged mice, Example 21-2, Table 18; type: in vivo, mouse; conditions: 22-month-old naturally aged mice, untreated aged = 100%
Experimental: 22-month-old female C57BL6J mice (KRIBB Laboratory Animal Resource Center) were acclimated to the experimental environment for one week, after which the aged mice were randomly assigned to experimental and control groups. Eight-week-old, non-aged mice served as controls. LX-403 was mixed in a 10% ethanol solution of PEG400 and administered orally at a concentration of 25 mg/kg daily for 21 days, or administered to the skin, joints, or eyes at a concentration of 1 μM. LX-1801 was mixed in distilled water with 4% DMSO, 30% PEG300, and 5% Tween80 and administered to the skin, joints, or eyes at a concentration of 0.4 μM daily for 21 days. LX-2001 was mixed in PBS and administered to the skin, joints, or eyes at a concentration of […] daily for 21 days. LX-2002 was mixed in distilled water with 4% DMSO, 30% PEG300, and 5% Tween80 and administered to the skin, joints, or eyes at a concentration of 2 μM daily for 21 days. […] LX-2005 was mixed in distilled water with 4% DMSO, 30% PEG300, and 5% Tween80 and administered to the skin, joints, or eyes at a concentration of 90 μM daily for 21 days. LX-2007 was mixed in distilled water with 4% DMSO, 30% PEG300, and 5% Tween80 and administered to the skin, joints, or eyes at a concentration of 90 μM daily for 21 days. […] LX-3002 was mixed in distilled water with 4% DMSO, 30% PEG300, and 5% Tween80 and administered orally at a concentration of 10 mg/kg daily for 21 days. […] LX-5411 was mixed in 5% PBS and administered orally at a concentration of 10 mg/kg daily for 21 days or administered to the skin, joints, or eyes at a concentration of 3 μM. LX-5701 was mixed in PBS and administered orally at a concentration of 360 mg/kg daily for 21 days. LX-6807 was mixed in saline and administered intraperitoneally at a concentration of 1 mg/kg daily for 21 days. LX-2101 or LX-2102 was mixed in PBS solution with 5% DMSO and administered intraperitoneally at a concentration of 20 mg/kg or 10 mg/kg, respectively, daily for 21 days. The control group received only the solution in the same volume. After the end of drug administration, the methods described in each example below were performed.
Mice were sacrificed, and RNA was extracted from each organ tissue using the same method as in Example 7-2 of WO2023-085787 A1. qRT-PCR was performed with the synthesized cDNA. […] The amount of p16 mRNA after aging was calculated as 100% and compared with the amount of p16 mRNA after test compound treatment.

| Structure (SMILES) | Open Field Test Time in Center (naturally aged mice) | p16 mRNA (%), Brain [1] [%] | p16 mRNA (%), Eye [1] [%] | p16 mRNA (%), Femur [1] [%] | p16 mRNA (%), Heart [1] [%] | p16 mRNA (%), Kidney [1] [%] | p16 mRNA (%), Knee joint [1] [%] | p16 mRNA (%), Liver [1] [%] | p16 mRNA (%), Lung [1] [%] | p16 mRNA (%), Muscle [1] [%] | p16 mRNA (%), Skin [1] [%] | p16 mRNA (%), eWAT [1] [%] |
| --- | --- | --- | --- | --- | --- | --- | --- | --- | --- | --- | --- | --- |
| COC(=O)c1ccc([C@H]2c3[nH]c4ccccc4c3C[C@H](C(=O)OC)N2C(=O)CCl)cc1 [LX-405] | 201.5 (±18.3) % | – | – | – | – | – | – | – | – | – | – | – |
| S=C(N/N=C1\CCCc2cccnc21)N1CCN(c2ccccn2)CC1 [LX-801] | 241.8 (±17.9) % | – | – | – | – | – | – | – | – | – | – | – |
| C[C@@H]1CC[C@@]23C[C@H](O)C(=O)[C@@]2(O)[C@]1(C)[C@H](OC(=O)CCl)C[C@@H](C1=CCn2c(=O)n(-c4ccccc4)c(=O)n2C1)[C@@H]3C [LX-1801, (2S,3aS,4S,5R,7R,8S,8aS,11R)-7-(1,3-Dioxo-2-phenyl-2,3,5,8-tetrahydro-1H-[1,2,4]triazolo[1,2-a]pyridazin-6-yl)-2,3a-dihydroxy-4,8,11-trimethyl-3-oxooctahydro-1H-4,8a-propanoazulen-5-yl 2-Chloroacetate] | 252.9 (±28) % | – | – | – | – | – | – | – | – | – | – | – |
| CC1(C)CC[C@]2(NC(=O)C(C)(F)F)CC[C@]3(C)[C@H](C(=O)C=C4[C@@]5(C)C=C(C#N)C(=O)C(C)(C)[C@@H]5CC[C@]43C)[C@@H]2C1 [LX-2101, Omaveloxolone] | 215.3 (±30.8) % | 62 | 62 | 61 | 78 | 46 | 75 | 62 | 54 | 82 | 80 | 42 |
| COC(=O)[C@]12CCC(C)(C)C[C@H]1[C@H]1C(=O)C=C3[C@@]4(C)C=C(C#N)C(=O)C(C)(C)[C@@H]4CC[C@@]3(C)[C@]1(C)CC2 [LX-2102, Bardoxolone methyl] | – | 85 | 72 | 64 | 81 | 53 | 64 | 58 | 71 | 75 | 77 | 39 |
| O=C1C2CCN(CC2)C1CNC(=O)C(F)(F)F (stereo not shown) [LX-5701] | – | 71 | 63 | 70 | 72 | 42 | 66 | 34 | 58 | 64 | 75 | 51 |
